Source: ChEMBL document CHEMBL1201862, “PubChem BioAssay data set” (2004)
Active and inactive are the calls of the source.

Columns and labels:
[1] = target: T1, SUMO-activating enzyme (Homo sapiens, UniProt Q9UBT2); assay: blockers of SAE1/SAE2–UBC9 SUMO transfer – biochemical, HTRF, uHTS, primary screen (AID 2006); type: protein-complex assay
[2] = target: T1, SUMO-activating enzyme; assay: blockers of UBC9-mediated SUMO conjugation – biochemical, AlphaScreen, SUMOylation inhibitor project, confirmation (AID 2018); type: functional
[3] = target: T2, Sentrin-specific protease 8 (Homo sapiens, UniProt Q96LD8); type: functional
T2 sequence (Q96LD8 whole entry): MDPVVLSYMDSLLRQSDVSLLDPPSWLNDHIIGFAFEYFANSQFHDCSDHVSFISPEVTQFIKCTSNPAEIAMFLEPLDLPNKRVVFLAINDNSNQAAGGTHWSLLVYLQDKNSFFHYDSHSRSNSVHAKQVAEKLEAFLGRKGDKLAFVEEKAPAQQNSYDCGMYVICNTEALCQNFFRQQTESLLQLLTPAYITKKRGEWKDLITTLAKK

[4] = target: T2, Sentrin-specific protease 8; type: functional; remark: listed apart in the source
[5] = target: T3, E3 ubiquitin-protein ligase XIAP (Homo sapiens, UniProt P98170); assay: small molecules displacing peptide from XIAP – biochemical, IAP family, fluorescence polarization (AID 1018); type: functional
T3 sequence (P98170 whole entry): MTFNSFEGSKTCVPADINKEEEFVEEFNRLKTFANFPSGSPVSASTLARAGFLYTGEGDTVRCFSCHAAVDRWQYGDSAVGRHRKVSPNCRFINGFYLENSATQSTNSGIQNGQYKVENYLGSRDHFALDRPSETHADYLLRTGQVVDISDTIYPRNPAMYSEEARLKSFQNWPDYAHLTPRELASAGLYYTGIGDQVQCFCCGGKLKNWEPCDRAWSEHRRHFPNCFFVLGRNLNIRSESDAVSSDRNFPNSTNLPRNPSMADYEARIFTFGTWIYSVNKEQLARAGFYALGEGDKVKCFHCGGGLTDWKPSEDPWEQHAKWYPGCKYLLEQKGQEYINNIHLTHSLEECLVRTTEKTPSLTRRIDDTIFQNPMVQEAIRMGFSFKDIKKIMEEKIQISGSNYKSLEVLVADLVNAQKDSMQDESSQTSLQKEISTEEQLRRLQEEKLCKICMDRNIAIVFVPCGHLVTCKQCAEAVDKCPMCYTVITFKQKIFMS

[6] = target: T3, E3 ubiquitin-protein ligase XIAP; assay: Counter Screen using XIAP-Bir3 for Chemical Antagonists of Bir1/2 domains of IAP-family anti-apoptotic proteins. [Related pubchem assays (depositor defined):AID1018, AID1449, AID1514, AID1638, AID1749, AID1750, AID488957, AID488963]
[7] = general cell-killing toxicity readout – plate reader, dry powder samples, cytotoxicity control for PAX8 inhibitor project, dose response (AID 743021); type: functional, cell-based
[8] = target: Melanocortin receptor 4 (Homo sapiens, UniProt P32245); assay: inhibitors of MC4R cAMP signaling – cell-based, TR-FRET, biased antagonists, dose response (AID 602298); type: functional;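 also: antagonist potency against agonist-stimulated cAMP production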
Melanocortin receptor 4, sequence (P32245 whole entry): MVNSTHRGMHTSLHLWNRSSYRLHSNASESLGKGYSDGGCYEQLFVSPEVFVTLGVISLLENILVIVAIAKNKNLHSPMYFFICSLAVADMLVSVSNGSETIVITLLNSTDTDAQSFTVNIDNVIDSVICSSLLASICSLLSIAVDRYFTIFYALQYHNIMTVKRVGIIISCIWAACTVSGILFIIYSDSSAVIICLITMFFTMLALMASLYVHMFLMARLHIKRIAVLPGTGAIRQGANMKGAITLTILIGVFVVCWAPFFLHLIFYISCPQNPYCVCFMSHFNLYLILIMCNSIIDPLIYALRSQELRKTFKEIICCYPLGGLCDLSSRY

[9] = target: T4, Streptokinase A (Streptococcus pyogenes serotype M1, UniProt P10520); assay: viability-normalized secreted streptokinase activity reduction – plasminogen activation absorbance, OD405, dose response (AID 1914); type: functional, Streptococcus pyogenes M1 GAS;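 also: secreted streptokinase activity via plasminogen activation per viability signal from cell pellet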
T4 sequence (P10520 whole entry): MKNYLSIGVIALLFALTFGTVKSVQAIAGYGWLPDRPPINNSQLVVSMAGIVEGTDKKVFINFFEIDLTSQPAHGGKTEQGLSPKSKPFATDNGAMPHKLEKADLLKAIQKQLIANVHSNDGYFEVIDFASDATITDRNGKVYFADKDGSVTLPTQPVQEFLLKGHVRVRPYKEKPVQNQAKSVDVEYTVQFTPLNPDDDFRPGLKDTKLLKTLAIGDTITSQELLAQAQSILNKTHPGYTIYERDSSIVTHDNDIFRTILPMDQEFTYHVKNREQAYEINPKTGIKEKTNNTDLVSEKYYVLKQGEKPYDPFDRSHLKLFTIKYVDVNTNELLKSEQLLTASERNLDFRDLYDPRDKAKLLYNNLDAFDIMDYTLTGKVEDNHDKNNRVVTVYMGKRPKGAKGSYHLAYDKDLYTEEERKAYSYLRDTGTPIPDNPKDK

[10] = tested on: Streptococcus sp. 'group A'; assay: Streptococcus pyogenes SK(-)GAS viability under kanamycin – luminescence, BacTiterGlo, confirmation, counter-screen for streptokinase expression inhibitor project, dose response (AID 1900); type: functional, organism-based
[11] = cAMP pathway inhibition in counterscreen cell line – TR-FRET cAMP detection, counter-screen for MC4R biased antagonist project, dose response (AID 602305); type: functional, cell-based;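 also: U2OS cells stimulated with forskolin near its EC80 as the cAMP inducer; potency is for inhibition of forskolin-stimulated cAMP signaling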
[12] = tested on: Streptococcus; assay: GAS UMAA2166 growth inhibition – luminescence, BacTiterGlo, counter-screen for streptokinase expression inhibitor project, dose response (AID 1915); type: functional, organism-based;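 also: potency for reduction of bacterial viability or growth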
[13] = NIH3T3 cell viability loss – ATP luminescence, mouse fibroblasts, counter-screen, dose response (AID 2010); type: functional, cell-based;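 also: cells exposed to compound for about 90 hours before reading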
[14] = Trypanosoma cruzi growth suppression in host cells – NIH3T3 host cells, beta-gal luminescence, confirmation (AID 2044); type: functional, cell-based;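 also: intracellular parasites grown in NIH/3T3 mouse fibroblasts as host cells; luminescent beta-galactosidase reporter signal from transgenic T. cruzi replicating inside host cells; inhibitors lower the luminescence signal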
[15] = target: Paired box protein Pax-8 (Homo sapiens, UniProt Q06710); assay: PAX8 transcriptional activity inhibition in RMG-I – RMG-I cells, luciferase, cherry-pick, dose response (AID 687027); type: functional, cell-based;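 also: luciferase reporter driven by Pax8 target thyroperoxidase promoter measured by SteadyGlo luminescence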
Paired box protein Pax-8, sequence (Q06710 whole entry): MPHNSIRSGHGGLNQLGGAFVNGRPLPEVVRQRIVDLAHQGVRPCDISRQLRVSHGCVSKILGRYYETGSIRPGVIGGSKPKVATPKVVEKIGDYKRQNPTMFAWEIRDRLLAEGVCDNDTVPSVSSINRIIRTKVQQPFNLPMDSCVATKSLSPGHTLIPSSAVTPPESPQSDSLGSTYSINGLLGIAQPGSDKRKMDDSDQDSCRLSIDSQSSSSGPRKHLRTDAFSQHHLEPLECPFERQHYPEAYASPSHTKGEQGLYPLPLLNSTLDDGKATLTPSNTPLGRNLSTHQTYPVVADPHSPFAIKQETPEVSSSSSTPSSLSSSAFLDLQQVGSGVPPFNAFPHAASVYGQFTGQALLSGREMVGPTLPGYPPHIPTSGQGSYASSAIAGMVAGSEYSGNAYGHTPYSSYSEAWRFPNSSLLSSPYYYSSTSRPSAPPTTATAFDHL

[16] = target: Ras and Rab interactor 1/Tyrosine-protein kinase ABL1 (Homo sapiens, UniProt P00519+Q13671); type: functional;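 also: biochemical TR-FRET dose-response test measuring inhibition of binding between Rin1 and Abl proteins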
Ras and Rab interactor 1/Tyrosine-protein kinase ABL1, sequence (P00519 whole entry): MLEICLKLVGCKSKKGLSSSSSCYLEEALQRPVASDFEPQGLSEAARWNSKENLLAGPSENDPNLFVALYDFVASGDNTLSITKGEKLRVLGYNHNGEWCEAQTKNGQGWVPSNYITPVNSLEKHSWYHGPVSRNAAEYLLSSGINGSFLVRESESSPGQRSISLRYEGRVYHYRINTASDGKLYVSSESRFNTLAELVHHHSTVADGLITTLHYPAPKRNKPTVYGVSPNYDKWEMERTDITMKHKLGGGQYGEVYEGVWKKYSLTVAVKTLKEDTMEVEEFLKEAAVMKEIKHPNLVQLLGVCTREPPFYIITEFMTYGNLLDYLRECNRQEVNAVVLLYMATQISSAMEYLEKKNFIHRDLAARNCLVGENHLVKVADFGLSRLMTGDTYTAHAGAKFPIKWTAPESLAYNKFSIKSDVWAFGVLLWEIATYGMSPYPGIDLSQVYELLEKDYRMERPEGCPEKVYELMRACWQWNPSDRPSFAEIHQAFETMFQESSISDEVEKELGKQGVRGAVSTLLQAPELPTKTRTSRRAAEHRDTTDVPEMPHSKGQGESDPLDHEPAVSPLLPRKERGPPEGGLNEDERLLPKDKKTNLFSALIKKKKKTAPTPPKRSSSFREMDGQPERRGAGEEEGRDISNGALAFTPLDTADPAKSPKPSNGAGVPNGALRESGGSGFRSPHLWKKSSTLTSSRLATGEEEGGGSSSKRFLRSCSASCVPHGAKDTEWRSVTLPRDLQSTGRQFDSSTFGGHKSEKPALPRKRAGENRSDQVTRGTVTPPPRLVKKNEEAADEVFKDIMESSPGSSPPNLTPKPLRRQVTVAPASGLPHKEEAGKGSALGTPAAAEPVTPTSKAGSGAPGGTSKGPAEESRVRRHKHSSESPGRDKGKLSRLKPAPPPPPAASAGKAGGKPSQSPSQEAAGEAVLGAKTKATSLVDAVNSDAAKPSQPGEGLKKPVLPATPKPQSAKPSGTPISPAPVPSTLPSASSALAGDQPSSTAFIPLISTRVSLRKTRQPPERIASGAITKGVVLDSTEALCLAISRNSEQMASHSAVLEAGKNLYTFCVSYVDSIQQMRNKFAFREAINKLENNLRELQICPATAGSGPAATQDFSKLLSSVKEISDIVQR
Ras and Rab interactor 1/Tyrosine-protein kinase ABL1, sequence (Q13671 whole entry): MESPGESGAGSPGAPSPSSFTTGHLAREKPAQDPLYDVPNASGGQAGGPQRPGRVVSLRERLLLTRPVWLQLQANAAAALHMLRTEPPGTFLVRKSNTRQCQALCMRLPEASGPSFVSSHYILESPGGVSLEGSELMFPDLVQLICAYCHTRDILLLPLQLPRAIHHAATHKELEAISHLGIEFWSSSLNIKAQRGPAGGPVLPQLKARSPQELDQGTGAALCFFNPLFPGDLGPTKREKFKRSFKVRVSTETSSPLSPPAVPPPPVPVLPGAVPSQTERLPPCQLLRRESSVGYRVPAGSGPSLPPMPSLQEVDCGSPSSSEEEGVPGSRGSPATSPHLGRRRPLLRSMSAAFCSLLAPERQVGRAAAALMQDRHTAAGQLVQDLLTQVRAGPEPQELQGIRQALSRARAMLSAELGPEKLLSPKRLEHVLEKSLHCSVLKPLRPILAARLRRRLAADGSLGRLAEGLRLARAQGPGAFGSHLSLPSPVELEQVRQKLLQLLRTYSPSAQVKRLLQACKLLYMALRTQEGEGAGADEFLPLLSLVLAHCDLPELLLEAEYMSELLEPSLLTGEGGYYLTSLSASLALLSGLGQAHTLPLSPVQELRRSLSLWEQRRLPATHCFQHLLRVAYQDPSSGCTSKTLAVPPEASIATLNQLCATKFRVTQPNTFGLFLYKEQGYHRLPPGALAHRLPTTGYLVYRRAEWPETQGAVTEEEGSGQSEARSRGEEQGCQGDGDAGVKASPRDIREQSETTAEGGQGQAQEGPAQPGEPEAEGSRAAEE

[17] = mouse fibroblast viability loss – cell-based, cherry-pick samples, set 2, cytotoxicity control for T. cruzi growth inhibitor project, dose response (AID 651817); type: functional; details: NIH3T3
[18] = target: T5, Probable nicotinate-nucleotide adenylyltransferase (Staphylococcus aureus (strain N315), UniProt P65502); type: functional, Staphylococcus aureus subsp. aureus N315;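 as to IC50 Mean: confirmatory dose-response retesting of NadD inhibitor hits first found in an ultra-high-throughput screen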
T5 sequence (P65502 whole entry): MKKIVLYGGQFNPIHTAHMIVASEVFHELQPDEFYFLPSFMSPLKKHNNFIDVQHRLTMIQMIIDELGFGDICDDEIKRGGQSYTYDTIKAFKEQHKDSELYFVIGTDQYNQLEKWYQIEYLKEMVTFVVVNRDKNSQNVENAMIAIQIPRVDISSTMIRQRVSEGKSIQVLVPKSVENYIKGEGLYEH

[19] = target: T6, Cytochrome P450 1A2 (Homo sapiens, UniProt P05177);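 also: PubChem cytochrome P450 panel assay, CYP1A2 panel member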
T6 sequence (P05177 whole entry): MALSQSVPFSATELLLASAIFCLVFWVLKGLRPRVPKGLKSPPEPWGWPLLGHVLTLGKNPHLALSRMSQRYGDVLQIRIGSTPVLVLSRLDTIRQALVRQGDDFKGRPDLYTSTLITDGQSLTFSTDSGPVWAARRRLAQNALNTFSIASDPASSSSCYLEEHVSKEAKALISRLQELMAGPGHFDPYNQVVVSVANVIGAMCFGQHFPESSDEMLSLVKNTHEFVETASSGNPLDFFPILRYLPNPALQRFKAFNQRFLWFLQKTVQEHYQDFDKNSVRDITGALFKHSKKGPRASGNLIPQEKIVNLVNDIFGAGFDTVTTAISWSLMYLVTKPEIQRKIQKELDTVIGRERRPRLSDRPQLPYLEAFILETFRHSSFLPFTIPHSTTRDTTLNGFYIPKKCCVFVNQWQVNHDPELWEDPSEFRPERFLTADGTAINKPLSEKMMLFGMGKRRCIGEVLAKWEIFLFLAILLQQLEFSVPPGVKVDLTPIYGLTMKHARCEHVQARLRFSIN

[20] = microbe, parasite or virus in culture; type: functional; details: Mycobacterium tuberculosis
[21] = target: T5, Probable nicotinate-nucleotide adenylyltransferase; type: functional, Staphylococcus aureus subsp. aureus N315; details: read-out: IC50_Mean
[22] = target: T7, Microphthalmia-associated transcription factor (Homo sapiens, UniProt O75030); assay: reducers of TRPM1 reporter luminescence, concentration series – cell-based, SK-MEL-5, cherry-picked, set 3, MITF inhibitor project, dose response (AID 493073); type: functional;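 also: SK-MEL-5 melanoma cells with luciferase driven by the MITF target TRPM1 promoter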
T7 sequence (O75030 whole entry): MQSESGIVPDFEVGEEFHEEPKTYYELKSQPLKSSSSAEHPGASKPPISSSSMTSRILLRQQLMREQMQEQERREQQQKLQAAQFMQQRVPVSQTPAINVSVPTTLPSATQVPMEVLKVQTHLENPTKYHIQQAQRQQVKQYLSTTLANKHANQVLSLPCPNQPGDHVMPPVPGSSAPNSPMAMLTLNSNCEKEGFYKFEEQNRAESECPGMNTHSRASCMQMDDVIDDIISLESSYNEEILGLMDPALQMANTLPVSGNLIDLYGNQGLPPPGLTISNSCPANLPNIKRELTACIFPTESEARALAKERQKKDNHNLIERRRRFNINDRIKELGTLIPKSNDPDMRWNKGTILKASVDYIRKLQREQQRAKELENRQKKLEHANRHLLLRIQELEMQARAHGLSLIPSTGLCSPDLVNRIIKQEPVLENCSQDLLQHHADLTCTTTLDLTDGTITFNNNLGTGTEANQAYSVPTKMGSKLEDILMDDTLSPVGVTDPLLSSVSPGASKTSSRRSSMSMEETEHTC

[23] = target: SWI/SNF-related matrix-associated actin-dependent regulator of chromatin subfamily A member 2 (Homo sapiens, UniProt P51531); assay: Luminescence-based cell-based high throughput dose response assay to identify activators of the function of SWI/SNF related, matrix associated, actin dependent regulator of chromatin, subfamily a, member 2 (SMARCA2, BRM).; type: functional
[24] = target: Botulinum neurotoxin type F (Clostridium botulinum, UniProt P30996); assay: High-throughput multiplex microsphere dose response for inhibitors of toxin protease, specifically Botulinum neurotoxin light chain F protease, compounds from Cherry Pick 02.; type: functional; details: read-out: EC50_MICROM
Botulinum neurotoxin type F, sequence (P30996 1-436 limits assumed): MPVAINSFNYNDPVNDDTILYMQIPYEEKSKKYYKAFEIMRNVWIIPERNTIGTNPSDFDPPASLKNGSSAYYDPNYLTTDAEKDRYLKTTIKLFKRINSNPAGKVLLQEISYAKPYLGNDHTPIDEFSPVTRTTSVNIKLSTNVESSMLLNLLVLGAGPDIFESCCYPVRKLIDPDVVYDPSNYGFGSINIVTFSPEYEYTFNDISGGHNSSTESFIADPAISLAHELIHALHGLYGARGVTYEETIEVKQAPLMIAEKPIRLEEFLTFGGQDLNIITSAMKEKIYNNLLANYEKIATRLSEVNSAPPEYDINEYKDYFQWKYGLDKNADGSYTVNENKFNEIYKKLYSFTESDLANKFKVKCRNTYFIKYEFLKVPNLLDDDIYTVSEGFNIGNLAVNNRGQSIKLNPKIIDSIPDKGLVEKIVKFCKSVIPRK

T1 sequence (Q9UBE0 whole entry): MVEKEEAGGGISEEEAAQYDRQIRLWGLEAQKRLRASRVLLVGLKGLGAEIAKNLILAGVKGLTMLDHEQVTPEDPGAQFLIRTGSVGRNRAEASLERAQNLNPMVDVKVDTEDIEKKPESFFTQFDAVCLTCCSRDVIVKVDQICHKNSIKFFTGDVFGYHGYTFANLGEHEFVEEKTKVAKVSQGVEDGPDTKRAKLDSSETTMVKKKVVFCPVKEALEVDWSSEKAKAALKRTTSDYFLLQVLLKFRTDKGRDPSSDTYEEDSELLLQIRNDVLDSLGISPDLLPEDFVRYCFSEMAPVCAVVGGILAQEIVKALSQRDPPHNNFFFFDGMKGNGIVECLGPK
T1 sequence (Q9UBT2 whole entry): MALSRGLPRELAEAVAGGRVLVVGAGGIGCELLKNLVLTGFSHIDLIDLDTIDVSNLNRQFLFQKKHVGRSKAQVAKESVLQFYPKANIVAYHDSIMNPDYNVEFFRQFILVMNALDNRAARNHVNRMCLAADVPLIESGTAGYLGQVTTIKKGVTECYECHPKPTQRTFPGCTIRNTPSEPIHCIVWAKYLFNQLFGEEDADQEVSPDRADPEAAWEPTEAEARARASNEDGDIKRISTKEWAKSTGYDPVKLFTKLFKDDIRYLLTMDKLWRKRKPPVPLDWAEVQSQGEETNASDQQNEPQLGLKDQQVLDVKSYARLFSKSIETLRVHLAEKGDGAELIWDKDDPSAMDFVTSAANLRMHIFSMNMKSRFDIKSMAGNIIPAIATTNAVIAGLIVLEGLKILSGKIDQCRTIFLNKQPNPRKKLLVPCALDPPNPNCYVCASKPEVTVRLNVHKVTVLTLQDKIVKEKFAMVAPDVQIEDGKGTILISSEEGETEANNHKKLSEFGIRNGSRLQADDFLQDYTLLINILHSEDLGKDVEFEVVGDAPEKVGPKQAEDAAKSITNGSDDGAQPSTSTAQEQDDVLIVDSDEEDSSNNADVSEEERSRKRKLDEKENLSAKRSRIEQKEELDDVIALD

Q: For `COc1cc(O)c(NC(C)=O)c2nonc12`, which IC50 [1] is on record?
A: Its IC50 is 74.2 µM (active).

Q: And the IC50 [2]?
A: The IC50 was 7.24 µM (active).

Q: And the IC50 [3]?
A: Its IC50 is 8.37 µM (active).

Q: And the IC50 [4]?
A: Its IC50 is 14.6 µM (active).

Q: For `COc1cc(/C=N/Nc2nc(Nc3ccc(C)cc3)nc(-n3nc(C)cc3C)n2)cc(OC)c1OC`, which IC50 [5] is on record?
A: Its IC50 is > 100 µM (not active).

Q: What about the IC50 [6] of the same compound?
A: Its IC50 is > 100 µM (inactive).

Q: And the AC50 [7]?
A: Its AC50 is 38.4 µM (active).

Q: What about the IC50 [8] of the same compound?
A: Its IC50 is > 64.6 µM (inactive).

Q: And the EC50 [9]?
A: The EC50 was > 150 µM (not active).

Q: What about the EC50 [10] of the same compound?
A: The EC50 was 1.82 µM (active).

Q: What about the IC50 [11] of the same compound?
A: The IC50 was > 64.6 µM (inactive).

Q: What about the EC50 [12] of the same compound?
A: The EC50 was 15.5 µM (active).

Q: What about the EC50 [13] of the same compound?
A: The EC50 was 11 µM (active).

Q: And the EC50 [14]?
A: The EC50 was 0.608 µM (active).

Q: What about the AC50 [15] of the same compound?
A: Its AC50 is 6.57 µM (active).

Q: With `Nc1cc(O)c2[nH]cnc2n1` as the compound, how does the IC50 [16] read?
A: The IC50 was 33.6 µM (inactive).

Q: For `C[C@H](CO)N1C[C@H](C)[C@H](CN(C)Cc2ccc(C(F)(F)F)cc2)Oc2c(NC(=O)c3ccncc3)cccc2C1=O`, which AC50 [17] is on record?
A: Its AC50 is 39 µM (inactive).

Q: Which IC50 [18] does the source give for `O=c1/c(=C\c2ccc(O)cc2)sc2n1C(c1ccccc1)C(c1ccccc1)=NN=2` (centres undefined) here?
A: The IC50 was 13.7 µM (active).

Q: What about the AC50 [19] of the same compound?
A: Its AC50 is 4.47 µM (inconclusive).

Q: And the CC50 [20]?
A: Its CC50 is 33 µM (active).

Q: What about the IC50 [21] of the same compound?
A: The IC50 was 32.1 µM (active).

Q: What does the source list for `Nc1nc2nn[nH]c2c(=O)[nH]1` [8-AZAGUANINE]?
A: AC50 [22]: 0.875 µM (active); EC50 [23]: > 91.2 µM (inactive)

Q: Which EC50 [24] does the source give for `O=C(O)CN1CCN(CC(=O)O)CCN(CC(=O)O)CCN(CC(=O)O)CC1` [TETRAXETAN] here?
A: The EC50 was > 20 µM (inactive).
